Columns and labels:
human serum albumin [1] = molecular target: T1, human serum albumin (Homo sapiens, UniProt P02768); test: Literature HSA binding of the reference substances used to calibrate the HSA column; settings: logarithmic K of human serum albumin binding, from the literature HSA%
Method: The mobile phase was freshly prepared for each experiment and only used for one day. The column was kept at room temperature and each run was stopped after detection of the signal to reduce the acquisition time. All substances were dissolved in a 0.5mg/ml concentration in 50% 2-Propanol and 50% 50mM pH 6.9 ammonium acetate buffer. […] All nine reference substances were injected consecutively to establish a non-linear regression with OriginPro 2016G. […] Table 1: Reference substances used for the calibration of the HSA-column.

human serum albumin [2] = molecular target: T1, human serum albumin; settings: literature value of human serum albumin binding (Valko et al. or Yamazaki et al.); cited from earlier work

T1 sequence (P02768 25-609): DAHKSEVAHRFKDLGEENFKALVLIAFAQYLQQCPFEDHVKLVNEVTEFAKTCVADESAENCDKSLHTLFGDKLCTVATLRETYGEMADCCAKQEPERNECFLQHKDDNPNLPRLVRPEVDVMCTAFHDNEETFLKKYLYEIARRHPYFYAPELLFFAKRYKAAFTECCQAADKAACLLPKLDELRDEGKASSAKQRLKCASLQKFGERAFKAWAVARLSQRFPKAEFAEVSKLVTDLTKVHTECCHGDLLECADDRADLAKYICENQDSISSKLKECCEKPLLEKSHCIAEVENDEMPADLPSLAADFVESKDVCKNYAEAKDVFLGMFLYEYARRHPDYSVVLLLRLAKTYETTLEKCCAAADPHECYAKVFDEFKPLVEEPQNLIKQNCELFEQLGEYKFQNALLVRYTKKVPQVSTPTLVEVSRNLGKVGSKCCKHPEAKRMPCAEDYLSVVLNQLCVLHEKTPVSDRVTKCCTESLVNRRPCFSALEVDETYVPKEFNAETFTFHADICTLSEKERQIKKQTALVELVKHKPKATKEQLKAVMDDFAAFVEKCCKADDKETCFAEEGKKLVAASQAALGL

SMILES	Log K HSA (human serum albumin [1])	Lit. HSA% (human serum albumin [2]) [%]
COc1ccc(Cl)cc1C(=O)NCCc1ccc(S(=O)(=O)NC(=O)NC2CCCCC2)cc1 [Glibenclamide]	1.69	99.00
O=C(O)c1ccccc1 [Benzoic Acid]	-0.29	34.27

Source: patent EP3494999A1, “PSMA LIGANDS FOR IMAGING AND ENDORADIOTHERAPY” (Technische Universität München, priority 2017, dated 2019)
